# Tests used:
# [1] = test system: CLL cells; test: LC3 confocal immunofluorescence (autophagosome formation) in CLL cells in vitro; type: cell-based, human; conditions: CLL patient cells, 4 hours; rapamycin 5 μM, thapsigargin 1 μM, F-ara-A 5 μM, chlorambucil 20 μM, CAL-101 1 μM, rituximab 10 μg/ml, flavopiridol 2 μM, CQ 0.5 μM
# Description: (§1) After 4 hours exposure to agents, cells were washed in phosphate-buffered saline (PBS) and made adherent on a microscope slide by centrifugation in a Cytospin3 (Shandon) centrifuge. Immediately after cytospin, cells were fixed in cold acetone. […] Nuclei were stained blue with DAPI (Vector Laboratories, Burlingame, Calif.). Images were taken using a 60× objective and 4× digital zoom with Olympus Fluoview 1000 Laser Scanning Confocal microscope at the Ohio State University Campus Microscopy and Imaging Facility. ATF6 antibody was purchased from LifeSpan Biosciences (Seattle, Wash.) and Nrf2 was from Santa Cruz Biotechnology (Santa Cruz, Calif.). Nuclei were evaluated for ATF6 and Nrf2 using confocal microscopy to collect Z stacks, approximately 45 slices per cell, 0.2 μm each.
# LC3 intensity and number of dots per cell were both assessed in the fluorescence images. Integrated intensity was measured using Metamorph v.7.0. To calculate the number of “dots” (local extreme point in pixel-intensity profile at which a number of high-intensity pixels form a cluster), a Gaussian filter was first applied to reduce noise. Cells were enumerated electronically by an improved watershed-based algorithm. To quantify co-localization, two binary nuclei images—red (R) and green (G)—are obtained. The correlation value is calculated as the number of white pixels of (R&G) divided by the number of pixels of (RIG), where (R&G) is the intersection of R and G, and (RIG) is the union of R and G. The program used for cell counts and measurement of correlation index is based on MatLab software (Natick, Mass.) and it was developed by members of Department of Biomedical Informatics, The Ohio State University.
# [2] = test system: CLL cells; test: LC3-Lamp2 co-localization (autophagosome-lysosome fusion) by confocal microscopy in CLL cells; type: cell-based, human; conditions: CLL cells incubated with 5 μM rapamycin (FIG. 9)
# Description: as §1
# LC3 intensity and number of dots per cell were both assessed in the fluorescence images. Integrated intensity was measured using Metamorph v.7.0. To calculate the number of “dots” (local extreme point in pixel-intensity profile at which a number of high-intensity pixels form a cluster), a Gaussian filter was first applied to reduce noise. Cells were enumerated electronically by an improved watershed-based algorithm. To quantify co-localization, two binary nuclei images—red (R) and green (G)—are obtained. […]
# [3] = test system: 697 cells; test: ChIP assay of ATF6 at GRP78 promoter in 697 cells; type: cell-based; conditions: relative to IgG control
# Description: In brief, cells were treated with 37% formaldehyde to ensure crosslinking of proteins to DNA. Cells were lysed and sonicated to shear the chromatin to fragments of approximately 500 bp. Sheared chromatin was incubated with ATF6 antibody (LifeSpan Biosciences, Seattle, Wash.), followed by precipitation, washing and reversing of the crosslinks Purified DNA was then analyzed by real-time quantitative PCR using primers to the GRP78 promoter region. Primers were designed using Primer 3 software and purchased from IDT (Coralville, Iowa).
# [4] = test system: Jurkat cell line; test: eIF2α phosphorylation immunoblot in cell lines (control); type: cell-based
# Description: (§2) Proteins extracted from whole cell lysates (50 μg/lane) were separated on polyacrylamide gels and transferred on nitrocellulose membrane. Antibodies used for immunoblots included LC3, IRE1α, TRAF2, PI3K III, ATG4C, ATG5-12, UVRAG, Beclin-1 (Cell Signaling, Boston, Mass.), GAPDH, Nrf2, ASK1, ULK1 (Santa Cruz Biotechnology), and Bif-1, ATG14-Barkor (Sigma-Aldrich, St Louis, Mo.). Species-appropriate secondary antibodies were obtained from BioRad Laboratories (Hercules, Calif.). Following antibody incubations, proteins were detected using a chemiluminescent substrate (BioRad Laboratories). For co-immunoprecipitations, TrueBlot beads (eBiosciences, San Diego, Calif.) and One-hour IP Western kit (GenScript, Piscataway, N.J.) were used according to manufacturer protocols. Quantification was done using FluorChem Q (Alpha Innotech, San Leandro Calif.).
# [5] = test system: cell lines 293T, RAW and 697, normal B cells; test: XBP1 splicing PCR in normal B cells and cell lines; type: cell-based
# Description: (§3) RNA was extracted using TRIzol reagent (Invitrogen, Carlsbad, Calif.) and purified using QIAGEN RNeasy columns (Qiagen, Valencia, Calif.). cDNA was prepared with SuperScript First-Strand Synthesis System (Invitrogen). Real-time PCR was performed using primers purchased from Applied Biosystems. Detection was performed using an ABI Prism 7700 sequence detection system (Applied Biosystems). Average relative expression (treatment compared with vehicle) was normalized to the internal control gene CD52. Primers to detect spliced XBP1 were designed using Primer 3 software and purchased from IDT. Samples were analyzed on 10% acrylamide gels.
# [6] = test system: IRE1; test: XBP1 splicing (IRE1 activity) PCR in CLL cells; type: cell-based, human; conditions: for induction of XBP1 splicing: CLL samples
# Description: as §3
# [7] = test system: XBP1, IRE1, GRP78; test: Real-time RT-PCR of ER stress genes in CLL cells in vitro; type: cell-based, human; conditions: CLL cells n=5; flavopiridol 2 μM, thapsigargin 1 μM, tunicamycin 3 μg/ml; CD52 control gene
# Description: as §3
# [8] = test system: ATF6; test: ATF6 nuclear translocation by confocal fluorescence microscopy in CLL cells; type: cell-based, human; conditions: CLL patient cells, flavopiridol 2 μM or thapsigargin 1 μM, 4 hours
# Description: After 4 hours exposure to agents, cells were washed in phosphate-buffered saline (PBS) and made adherent on a microscope slide by centrifugation in a Cytospin3 (Shandon) centrifuge. Immediately after cytospin, cells were fixed in cold acetone. Next, the cells were incubated in blocking solution (2% bovine serum albumin in PBS) and stained for LC3 (Cell Signaling, Boston, Mass.)) and Lamp2 (Santa Cruz Biotechnology, Santa Cruz, Calif.) by incubating separately with the respective primary antibodies over night, in 4° C., followed by incubation with fluorescent secondary antibodies (Invitrogen, Carlsbad, Calif.): Alexa fluor 594 (red) anti-rabbit for LC3 and Alexa fluor 488 (green) anti-mouse for Lamp2. Nuclei were stained blue with DAPI (Vector Laboratories, Burlingame, Calif.). Images were taken using a 60× objective and 4× digital zoom with Olympus Fluoview 1000 Laser Scanning Confocal microscope at the Ohio State University Campus Microscopy and Imaging Facility. ATF6 antibody was purchased from LifeSpan Biosciences (Seattle, Wash.) and Nrf2 was from Santa Cruz Biotechnology (Santa Cruz, Calif.). Nuclei were evaluated for ATF6 and Nrf2 using confocal microscopy to collect Z stacks, approximately 45 slices per cell, 0.2 μm each.
# [9] = test system: PERK; test: PERK activity by eIF2α phosphorylation immunoblot in CLL cells; type: cell-based, human
# Description: as §2
# [10] = test system: JNK1 and p38MAPK; test: Immunoblot of phosphorylated JNK1 and p38MAPK in CLL cells in vitro; type: cell-based, human; conditions: flavopiridol 2 μM, thapsigargin 1 μM, F-ara-A 5 μM
# Description: as §2
# [11] = test system: CLL cells; test: Cell viability by annexin V/PI flow cytometry in CLL cells
# Description: Percent of live cells was determined by staining with annexin V-fluorescein isothiocyanate and propidium iodide (PI). After exposure to agents, cells were washed with PBS and stained in 1× binding buffer (BD Biosciences, Franklin Lakes, N.J.). Cell viability was assessed by flow cytometry using a Beckman-Coulter Cytomics FC500 cytometer. Data were analyzed with the CXP Cytometer software package (Beckman-Coulter). A total of 10,000 cells were counted for each sample. The cells treated with flavopiridol were washed after 4 hours with PBS and re-suspended in regular growth medium (RPMI 1640) supplemented with 10% human serum and antibiotics for the remainder of the incubation time. […] For all the other conditions, cells were incubated with the respective drugs for 24 hours continuously.
# CLL cells were suspended in buffer V (Amaxa kit, Lonza, Allendale, N.J.) and nucleofection was performed using program U016 (5 μg siRNA and 1×10^7 cells per cuvette). Scrambled siRNA and siRNAs to ATG5, ATG7 and ASK1 were purchased from Sigma-Aldrich. Cells were immediately suspended in warm, complete media supplemented with 10% human serum, and RNA was extracted after 36 hours. For CDK1 and CDK5, siRNAs were purchased from Applied Biosystems (Carlsbad, Calif.). Transfections were done using 5 nM siRNA per cuvette, and RNA was harvested at 48 hours.
# [12] = test system: caspase 4; test: Caspase 4 activity (AFC assay) in CLL cells treated in vitro; type: cell-based, human; conditions: Z-YVAD-FMK 20 μM in combination with flavopiridol, thapsigargin or tunicamycin
# Description: (§4) The presence of active caspase enzymes was determined by the AFC assay. Briefly, lysates containing approximately 3×10^6 cells were incubated with 50 μM LEVD-AFC (caspase 4 substrate) or LETD-AFC (caspase 8 substrate) from MP Biomedicals (Solon, Ohio) in 2× cytobuffer from BioVision (Exton, Pa.) containing 10 mM dithiothretiol (DTT). Caspase 4 activity was measured one hour after addition of substrate and caspase 8 activity was measured 30 minutes after addition of substrate. Release of free AFC was measured with a Beckman-Coulter DTX 880 multimode detector (Filters: excitation, 405/10 nm; emission, 535/25 nm). Caspase 4 inhibitor Z-YVAD-FMK was purchased from R&D Systems.
# [13] = test system: caspase 8; test: Caspase 8 activity (AFC assay) in CLL cells treated in vitro; type: cell-based, human; conditions: Z-YVAD-FMK 20 μM in combination with flavopiridol, thapsigargin or tunicamycin
# Description: as §4
compound,measurement,setting,value
O=C(O)CCCc1ccc(N(CCCl)CCCl)cc1 [chlorambucil],LC3 aggregation / LC3 fluorescence (autophagosome formation) versus vehicle,[1],neither chlorambucil nor rituximab produced this effect
CCN(CC)CCCC(C)Nc1ccnc2cc(Cl)ccc12 (centres unmarked) [chloroquine],chloroquine concentrations that inhibit autophagosome-lysosome fusion,[2],0.1 to 0.5 µM
C/C=C(/C)C(=O)O[C@H]1C(C)=C2[C@H]([C@@H]1OC(=O)CCCCCCC)[C@@](C)(OC(C)=O)C[C@H](OC(=O)CCC)[C@@]1(O)[C@H]2OC(=O)[C@@]1(C)O [thapsigargin],LC3 aggregation / LC3 fluorescence (autophagosome formation) versus vehicle,[1],increase in LC3 aggregation
same,binding of GRP78 promoter region by ATF6,[3],enhanced binding of the GRP78 promoter region by ATF6
same,eIF2α phosphorylation,[4],dramatic EIF2α phosphorylation
same,XBP1 splicing,[5],XBP1 splicing is detected
same,IRE1 activity (splicing of IRE1 substrate XBP1),[6]; CLL cells,no evidence of IRE1 activity
same,induction of XBP1 splicing,[6],neither thapsigargin nor tunicamycin induced XBP1 splicing in any of the samples analyzed
same,"expression of ER stress genes XBP1, IRE1 and GRP78",[7],"significant, time-dependent increase in expression of ER stress genes XBP1, IRE1 and GRP78"
same,ATF6 nuclear translocation,[8],increased nuclear translocation
same,PERK activity (phosphorylation of eIF2α),[9],minimally active
same,phosphorylation of JNK1 and p38MAPK,[10],induced the phosphorylation of both JNK1 and p38MAPK
same,effect of chloroquine addition on cell death caused by the agent,"[11]; CLL cells, annexin/PI negative, CQ 0.5 μM, flavopiridol 4 hours then washed, CQ continuous 24 hours",significantly enhanced
same,effect of ATG5/ATG7 siRNA vs scrambled siRNA on cytotoxicity of the agent,"[11]; human, 24 h, 1 μM",significantly (P=0.0047) enhanced
Z-YVAD-FMK,inhibition of agent-induced caspase 4 activity,[12],successfully inhibited
same,effect on flavopiridol-mediated cell death,"[11]; CLL cells n=5, Z-YVAD-FMK 20 μM, flavopiridol 2 μM, 24 hours",significantly (P=0.012) reduced
same,inhibition of agent-induced caspase 8 activity,[13],successfully inhibited
"rituximab: agent used in CLL, from Genentech",LC3 aggregation / LC3 fluorescence (autophagosome formation) versus vehicle,[1],neither chlorambucil nor rituximab produced this effect
tunicamycin,induction of XBP1 splicing,[6],neither thapsigargin nor tunicamycin induced XBP1 splicing in any of the samples analyzed
same,"expression of ER stress genes XBP1, IRE1 and GRP78",[7],"significant, time-dependent increase in expression of ER stress genes XBP1, IRE1 and GRP78"
